From patent US20240158386A1, “BENZOXAZOLONE INHIBITORS OF INFLAMMASOMES” (ICAHN SCHOOL OF MEDICINE AT MOUNT SINAI, priority 2021, published 2024)

What was measured:
[1] = test system: NLRP3, caspase-1, IL-1β, IL-6, IL-8, and TNF-α gene expression; assay: Gene expression analysis in cell cultures (FIG. 3C); type: cell-based, human
Protocol: (§1) Gene expression analysis. RNA was isolated from frontal cortex from C57BL/6J mice or from THP1 human cultures using the RNeasy Mini Kit (QIAGEN, Hilden, Germany), following the recommendations of the manufacturer. RNA concentration was determined, and cDNA was synthesized using the High-Capacity cDNA Reverse Transcription Kit with RNase Inhibitor (applied biosystems™). The expression levels of inflammatory genes—NLRP3, caspase-1, IL-1β, TNF-α, NLRC4, IL-18, and IL6—were determined in 4 replicates through PowerUp SYBER Green Master Mix (Thermofisher) using an ABI PRISM […] Sequence Detection System. Hypoxanthine phosphoribosyltransferase (HPRT) was used as an internal control in samples from mouse brains, and GAPDH in the case of THP1 lysates. Gene expression levels were normalized to control samples (mice or THP1 cells treated with PBS).

[2] = test system: inflammasome priming (NLRP3, caspase-1, IL-1β, TNF-α, IL6, NLRC4 expression); assay: In-vivo assessment of C77: RNA expression of inflammatory genes in mouse brain; parameters: species or system WT C57BL/6J mice; conditions: 50 mg/kg 2 hours before LPS administration
Protocol: as §1
Animals used in in-vivo assessments. WT C57BL/6J mice (stock #000664) were obtained from The Jackson Laboratory. Mice were housed in groups of five animals per cage on a 12:12 hours light/dark cycle. Water and food were provided ad libitum. 8-10 weeks males were used for experiments. All procedures were approved by the Institutional Animal Care and use Committee of the Icahn School of Medicine at Mount Sinai.
In-vivo assessment of C77. The ability of C77 to inhibit NLRP3 in-vivo was evaluated using WT C57BL/6J mice. […]

O=C(Cn1c(=O)oc2ccccc21)NCc1cncc(-c2ccsc2)c1 [Compound C77]
expression of caspase-1 [1]: slightly reduced the expression of caspase-1
mRNA levels of IL-6, IL-8, or TNF-α [1]: did not modify the mRNA levels
transcriptional priming of NLRP3 or IL-1β [1]: did not affect the transcriptional priming
overexpression of inflammatory genes (NLRP3, IL1β, TNF-α, IL6) in mouse brain [2]: did not reduce the overexpression of these genes
